The values that follow are results of earlier work, collected in PubChem BioAssay AID1259409 (Chemical Carcinogenesis Research Information System (CCRIS), 2018).

In the series the test system is rodent chemically induced tumor inhibition, incidence and multiplicity. The series can be described thus: CCRIS tumor inhibitor studies. Particulars: Route [Inhibitor]: ORAL, Species: RAT, Strain/Sex: F344/MALE; for outcome: Dose [Carcinogen]: 0.1% IN DRINKING WATER FOR 1 WK (STUDY DURATION: 32 WK).

On to `COc1cc(/C=C/C(=O)O[C@H]2CC[C@]34C[C@]35CC[C@]3(C)[C@@H]([C@H](C)CCC=C(C)C)CC[C@@]3(C)[C@@H]5CC[C@H]4C2(C)C)ccc1O`, for which the outcome is given as 0/20 (0%), 0/20 (0%), 0%, not significant (Carcinogen: 2,2'-DIHYDROXY-DI-N-PROPYLNITROSAMINE [621-64-7], Dose [Inhibitor]: 0.04% IN DIET FOR 30 WK BEGINNING 1 WK POST LAST CARCINOGEN DOSE (STUDY DURATION: 32 WK), Target Tissue: Type of Lesion: LUNG: CARCINOMA, Promoter: NONE); 0/20 (0%), 2/20 (10%), -100%, not significant (Carcinogen: 2,2'-DIHYDROXY-DI-N-PROPYLNITROSAMINE [621-64-7], Dose [Inhibitor]: 0.2% IN DIET FOR 30 WK BEGINNING 1 WK POST LAST CARCINOGEN DOSE (STUDY DURATION: 32 WK), Target Tissue: Type of Lesion: LUNG: CARCINOMA, Promoter: NONE); 0/20 (0%), 10/20 (50%), -100%, p<0.001 (Carcinogen: 2,2'-DIHYDROXY-DI-N-PROPYLNITROSAMINE [621-64-7], Dose [Inhibitor]: 1% IN DIET FOR 30 WK BEGINNING 1 WK POST LAST CARCINOGEN DOSE (STUDY DURATION: 32 WK), Target Tissue: Type of Lesion: LUNG: CARCINOMA, Promoter: NONE). For the same molecule, the “tumour outcome (control, treated, inhibition, significance)” value is 9/14 (64%), 5/13 (38%), 41%, p<0.05 (Carcinogen: 2,2'-DIHYDROXY-DI-N-PROPYLNITROSAMINE [621-64-7], N-ETHYL-N-HYDROXYETHYLNIATROSAMINE [13147-25-6], 3,2'-DIMETHYL-4-AMINO, Carcinogen: 2,2'-DIHYDROXY-DI-N-PROPYLNITROSAMINE [621-64-7], N-ETHYL-N-HYDROXYETHYLNIATROSAMINE [13147-25-6], 3,2'-DIMETHYL-4-AMINO, Dose [Inhibitor]: 1% IN DIET FOR 32 WK BEGINNING 1 WK POST LAST CARCINOGEN DOSE (STUDY DURATION: 32 WK), Target Tissue: Type of Lesion: LIVER: ADENOMA, Dose [Carcinogen]: 1000 MG/KG BW DHPN IP 2X/3 WK, 1500 MG/KG BW EHEN IP 2X/3 WK, 75 MG/KG BW DMAB SC 3X/3 WK;, Dose [Carcinogen]: 1000 MG/KG BW DHPN IP 2X/3 WK, 1500 MG/KG BW EHEN IP 2X/3 WK, 75 MG/KG BW DMAB SC 3X/3 WK;, Promoter: NONE); 6/14 (43%), 3/13 (23%), 47%, not significant (Carcinogen: 2,2'-DIHYDROXY-DI-N-PROPYLNITROSAMINE [621-64-7], N-ETHYL-N-HYDROXYETHYLNIATROSAMINE [13147-25-6], 3,2'-DIMETHYL-4-AMINO, Carcinogen: 2,2'-DIHYDROXY-DI-N-PROPYLNITROSAMINE [621-64-7], N-ETHYL-N-HYDROXYETHYLNIATROSAMINE [13147-25-6], 3,2'-DIMETHYL-4-AMINO, Dose [Inhibitor]: 1% IN DIET FOR 32 WK BEGINNING 1 WK POST LAST CARCINOGEN DOSE (STUDY DURATION: 32 WK), Target Tissue: Type of Lesion: LIVER: CARCINOMA, Dose [Carcinogen]: 1000 MG/KG BW DHPN IP 2X/3 WK, 1500 MG/KG BW EHEN IP 2X/3 WK, 75 MG/KG BW DMAB SC 3X/3 WK;, Dose [Carcinogen]: 1000 MG/KG BW DHPN IP 2X/3 WK, 1500 MG/KG BW EHEN IP 2X/3 WK, 75 MG/KG BW DMAB SC 3X/3 WK;, Promoter: NONE); 7/14 (50%), 11/13 (85%), -70%, not significant (Carcinogen: 2,2'-DIHYDROXY-DI-N-PROPYLNITROSAMINE [621-64-7], N-ETHYL-N-HYDROXYETHYLNIATROSAMINE [13147-25-6], 3,2'-DIMETHYL-4-AMINO, Carcinogen: 2,2'-DIHYDROXY-DI-N-PROPYLNITROSAMINE [621-64-7], N-ETHYL-N-HYDROXYETHYLNIATROSAMINE [13147-25-6], 3,2'-DIMETHYL-4-AMINO, Dose [Inhibitor]: 1% IN DIET FOR 32 WK BEGINNING 1 WK POST LAST CARCINOGEN DOSE (STUDY DURATION: 32 WK), Target Tissue: Type of Lesion: LUNG: ADENOMA, Dose [Carcinogen]: 1000 MG/KG BW DHPN IP 2X/3 WK, 1500 MG/KG BW EHEN IP 2X/3 WK, 75 MG/KG BW DMAB SC 3X/3 WK;, Dose [Carcinogen]: 1000 MG/KG BW DHPN IP 2X/3 WK, 1500 MG/KG BW EHEN IP 2X/3 WK, 75 MG/KG BW DMAB SC 3X/3 WK;, Promoter: NONE); 1/14 (8%), 7/13 (54%), -575%, p<0.05 (Carcinogen: 2,2'-DIHYDROXY-DI-N-PROPYLNITROSAMINE [621-64-7], N-ETHYL-N-HYDROXYETHYLNIATROSAMINE [13147-25-6], 3,2'-DIMETHYL-4-AMINO, Carcinogen: 2,2'-DIHYDROXY-DI-N-PROPYLNITROSAMINE [621-64-7], N-ETHYL-N-HYDROXYETHYLNIATROSAMINE [13147-25-6], 3,2'-DIMETHYL-4-AMINO, Dose [Inhibitor]: 1% IN DIET FOR 32 WK BEGINNING 1 WK POST LAST CARCINOGEN DOSE (STUDY DURATION: 32 WK), Target Tissue: Type of Lesion: LUNG: CARCINOMA, Dose [Carcinogen]: 1000 MG/KG BW DHPN IP 2X/3 WK, 1500 MG/KG BW EHEN IP 2X/3 WK, 75 MG/KG BW DMAB SC 3X/3 WK;, Dose [Carcinogen]: 1000 MG/KG BW DHPN IP 2X/3 WK, 1500 MG/KG BW EHEN IP 2X/3 WK, 75 MG/KG BW DMAB SC 3X/3 WK;, Promoter: NONE); 7/14 (50%), 5/13 (38%), 24%, not significant (Carcinogen: 2,2'-DIHYDROXY-DI-N-PROPYLNITROSAMINE, 53609-64-6, N-ETHYL-N-HYDROXYETHYL- NITROSAMINE, 13147-25-6, 3,2'-DIMETHYL-4-, Carcinogen: 2,2'-DIHYDROXY-DI-N-PROPYLNITROSAMINE, 53609-64-6, N-ETHYL-N-HYDROXYETHYL- NITROSAMINE, 13147-25-6, 3,2'-DIMETHYL-4-, Dose [Inhibitor]: 0, 1% IN DIET BEGINNING 1 WK POST LAST CARCINOGEN DOSE AND CONTINUING FOR 32 WK (STUDY DURATION: 36 WK), Target Tissue: Type of Lesion: LARGE INTESTINE: ADENOMA, Dose [Carcinogen]: 1000 MG/KG IP DHPN 2X, 1500 MG/KG GAV EHEN 2X AND 75 MG/KG SC DMAB 3X GIVEN OVER THE INITIAL 3 WK PERIOD AT 3-4 D INTERV, Promoter: NONE USED); 3/14 (21%), 6/13 (46%), -119%, not calculated (Carcinogen: 2,2'-DIHYDROXY-DI-N-PROPYLNITROSAMINE, 53609-64-6, N-ETHYL-N-HYDROXYETHYL- NITROSAMINE, 13147-25-6, 3,2'-DIMETHYL-4-, Carcinogen: 2,2'-DIHYDROXY-DI-N-PROPYLNITROSAMINE, 53609-64-6, N-ETHYL-N-HYDROXYETHYL- NITROSAMINE, 13147-25-6, 3,2'-DIMETHYL-4-, Dose [Inhibitor]: 0, 1% IN DIET BEGINNING 1 WK POST LAST CARCINOGEN DOSE AND CONTINUING FOR 32 WK (STUDY DURATION: 36 WK), Target Tissue: Type of Lesion: LARGE INTESTINE: CARCINOMA, Dose [Carcinogen]: 1000 MG/KG/ IP DHPN 2X, 1500 MG/KG GAV EHEN 2X 75 MG/KG SC DMAB 3X GIVEN OVER THE INITIAL 3 WK PERIOD AT 3-4 D INTERVALS, Promoter: NONE USED).
